# Assay results as given in patent publication US7968291B2, “RNA bioassay” (The Hamner Institute for Health Sciences, priority 2002, dated 2011).
# “Also recorded” adds a separate entry of the source.
# System: Sprague_Dawley/Crl:CD (SD)IGS BR rats
# Experiment: Liver histopathology of treated rats
# Assay type: in vivo, rat
# Settings: 1400 mg/kg oral gavage, 24 hours
# Method: Four control rats were administered a quantity of methylcellulose vehicle (no acetaminophen) having a volume approximately equal to that received by treated rats. After 24 hours, all rats were euthanized and livers were collected by necropsy. At necropsy, blood samples were collected via the vena cava (approximately 0.5 ml) in microtainer tubes. All livers were then fixed in 10% neutral buffered formalin and processed for histopathology by trimming trimmed, dehydrating, embedding in paraffin, sectioning, mounting on glass slides, and staining with hematoxylin and eosin stains.
# Microscopically, there was a moderate centrilobular degeneration which was multifocal in two of the animals and was characterized by hepatocellular degeneration and necrosis, edema fluid, hemorrhages, and infiltration of mononuclear cells and occasional neutrophils in the other two animals. The severity and distribution of the microscopic lesions correlated well with the measured increases in ALT, AST, 5′NT, and albumin RT-PCR.
smiles,measurement,setting,value
CC(=O)Nc1ccc(O)cc1 [acetaminophen],Histopathological analysis of liver,four rats,moderate levels of damage
same,Hepatocellular Degeneration,individual rats (animals 1-4),Diffuse; also recorded: Multifocal
